Data: ChEMBL document CHEMBL1130526, “Amide surrogates of matrix metalloproteinase inhibitors: Urea and sulfonamide mimics” (Bioorg Med Chem Lett, 1997)

What was measured:
[1] = molecular target: Matrix metalloproteinase-9 (Homo sapiens, UniProt P14780); assay: Inhibition of Matrix metalloprotease-9
Stromelysin-1 [2] = molecular target: T1, Stromelysin-1 (Homo sapiens, UniProt P08254); assay: Inhibition of Matrix metalloprotease-3 (MMP-3)
Target sequence in this assay (P08254 whole entry): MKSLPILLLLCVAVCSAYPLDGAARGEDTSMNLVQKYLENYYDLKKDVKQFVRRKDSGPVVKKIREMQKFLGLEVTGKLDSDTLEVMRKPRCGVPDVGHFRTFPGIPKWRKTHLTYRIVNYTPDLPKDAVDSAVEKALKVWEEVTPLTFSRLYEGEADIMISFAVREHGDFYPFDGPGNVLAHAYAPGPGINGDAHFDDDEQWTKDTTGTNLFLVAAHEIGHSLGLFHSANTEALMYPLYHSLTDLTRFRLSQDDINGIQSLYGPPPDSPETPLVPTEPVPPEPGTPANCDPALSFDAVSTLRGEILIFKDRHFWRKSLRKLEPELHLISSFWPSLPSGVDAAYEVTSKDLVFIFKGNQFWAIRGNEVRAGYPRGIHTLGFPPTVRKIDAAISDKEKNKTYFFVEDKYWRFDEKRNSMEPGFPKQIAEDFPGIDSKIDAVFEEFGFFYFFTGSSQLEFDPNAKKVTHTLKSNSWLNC

Interstitial collagenase = molecular target: T2, Interstitial collagenase (Homo sapiens, UniProt P03956); assay: Inhibition of Matrix metalloprotease-1 (MMP-1)
T2 sequence (P03956 whole entry): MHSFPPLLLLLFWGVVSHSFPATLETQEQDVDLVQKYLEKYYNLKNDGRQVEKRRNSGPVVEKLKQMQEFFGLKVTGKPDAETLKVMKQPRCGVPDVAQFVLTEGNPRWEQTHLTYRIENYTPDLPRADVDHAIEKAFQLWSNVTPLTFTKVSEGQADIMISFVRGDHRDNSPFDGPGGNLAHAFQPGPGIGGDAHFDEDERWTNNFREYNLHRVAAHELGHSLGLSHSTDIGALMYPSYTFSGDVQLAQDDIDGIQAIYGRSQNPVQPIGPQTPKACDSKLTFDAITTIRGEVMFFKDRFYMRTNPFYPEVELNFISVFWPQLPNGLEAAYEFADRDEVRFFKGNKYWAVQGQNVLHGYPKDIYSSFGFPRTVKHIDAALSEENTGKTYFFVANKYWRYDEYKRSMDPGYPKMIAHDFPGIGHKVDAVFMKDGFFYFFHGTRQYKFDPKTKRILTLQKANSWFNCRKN

[3] = molecular target: 72 kDa type IV collagenase (Homo sapiens, UniProt P08253); assay: Inhibition of Matrix metalloprotease-2 (MMP-2)
Stromelysin-1 [4] = molecular target: T1, Stromelysin-1; assay: Inhibition of Matrix metalloprotease-3 (MMP-3) at 50 uM
Target sequence in this assay (P08254 100-477 limits assumed): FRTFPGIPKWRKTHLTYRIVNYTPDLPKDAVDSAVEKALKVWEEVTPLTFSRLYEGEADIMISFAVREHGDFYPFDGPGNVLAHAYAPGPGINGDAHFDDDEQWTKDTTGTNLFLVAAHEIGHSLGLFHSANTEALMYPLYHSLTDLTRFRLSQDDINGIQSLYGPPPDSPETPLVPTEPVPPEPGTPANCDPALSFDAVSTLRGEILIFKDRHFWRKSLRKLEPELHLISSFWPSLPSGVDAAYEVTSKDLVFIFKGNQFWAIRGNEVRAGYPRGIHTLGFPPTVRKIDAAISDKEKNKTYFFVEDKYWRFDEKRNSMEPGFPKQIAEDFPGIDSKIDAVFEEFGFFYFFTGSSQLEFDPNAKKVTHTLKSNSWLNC

Matrix metalloproteinase-9, sequence (P14780 whole entry): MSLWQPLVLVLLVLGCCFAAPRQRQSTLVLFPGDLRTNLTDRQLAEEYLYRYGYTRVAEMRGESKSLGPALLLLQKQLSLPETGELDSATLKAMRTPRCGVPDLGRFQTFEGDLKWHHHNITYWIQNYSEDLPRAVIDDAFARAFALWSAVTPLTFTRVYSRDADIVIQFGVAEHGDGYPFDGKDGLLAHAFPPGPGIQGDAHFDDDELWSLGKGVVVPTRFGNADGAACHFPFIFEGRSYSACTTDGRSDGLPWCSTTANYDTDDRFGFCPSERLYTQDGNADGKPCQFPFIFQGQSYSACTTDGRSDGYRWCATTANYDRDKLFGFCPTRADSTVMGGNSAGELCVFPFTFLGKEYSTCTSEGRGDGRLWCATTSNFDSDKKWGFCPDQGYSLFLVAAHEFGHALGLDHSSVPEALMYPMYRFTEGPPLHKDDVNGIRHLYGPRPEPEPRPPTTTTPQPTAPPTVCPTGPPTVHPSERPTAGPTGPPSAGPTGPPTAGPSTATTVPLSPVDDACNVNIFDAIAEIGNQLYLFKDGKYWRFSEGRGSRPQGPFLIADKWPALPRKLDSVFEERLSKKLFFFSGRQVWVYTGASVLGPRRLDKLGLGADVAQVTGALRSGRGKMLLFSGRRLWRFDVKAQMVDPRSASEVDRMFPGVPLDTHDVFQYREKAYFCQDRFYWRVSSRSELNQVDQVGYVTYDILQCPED
72 kDa type IV collagenase, sequence (P08253 whole entry): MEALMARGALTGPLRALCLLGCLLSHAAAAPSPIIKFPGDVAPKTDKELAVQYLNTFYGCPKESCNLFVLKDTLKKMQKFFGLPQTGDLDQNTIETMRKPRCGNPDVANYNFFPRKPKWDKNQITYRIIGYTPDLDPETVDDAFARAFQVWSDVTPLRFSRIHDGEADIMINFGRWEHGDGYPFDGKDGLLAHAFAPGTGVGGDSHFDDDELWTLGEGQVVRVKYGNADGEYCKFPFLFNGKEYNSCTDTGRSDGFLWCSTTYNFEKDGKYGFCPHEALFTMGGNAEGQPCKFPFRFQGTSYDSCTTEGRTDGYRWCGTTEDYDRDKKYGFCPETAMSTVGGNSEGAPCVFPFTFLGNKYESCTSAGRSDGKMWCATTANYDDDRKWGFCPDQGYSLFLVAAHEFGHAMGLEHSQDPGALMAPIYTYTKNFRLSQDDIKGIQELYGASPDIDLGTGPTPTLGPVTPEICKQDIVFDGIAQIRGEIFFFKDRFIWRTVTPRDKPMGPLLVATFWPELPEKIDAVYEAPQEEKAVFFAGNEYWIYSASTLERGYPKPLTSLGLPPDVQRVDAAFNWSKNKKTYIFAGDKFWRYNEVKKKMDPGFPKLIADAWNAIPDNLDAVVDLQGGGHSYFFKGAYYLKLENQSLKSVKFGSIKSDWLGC

Compound | Ki [1] [µM] | Ki (Stromelysin-1 [2]) [µM] | Ki (Interstitial collagenase) [µM] | Ki [3] [µM] | inhibition (Stromelysin-1 [4]) [%]
CNC(=O)[C@H](Cc1ccc(OC)cc1)NS(=O)(=O)C(CC(=O)NO)CC(C)C (stereo not given in full) | 0.62 | 4.1 | 0.77 | 0.62 | –
CNC(=O)[C@H](Cc1ccc(OC)cc1)NC(=O)[C@@H](CC(=O)O)CC(C)C | 0.184 | 29.4 | 0.336 | 0.86 | –
CCCCCCC(CC(=O)NO)S(=O)(=O)N[C@@H](Cc1ccc(OC)cc1)C(=O)NC (stereo not given in full) | 0.21 | 4 | 2.3 | 0.43 | –
CNC(=O)[C@H](Cc1ccc(OC)cc1)NC(=O)[C@@H](CC(=O)NO)CC(C)C | < 0.01 | < 0.01 | – | – | –
CNC(=O)[C@H](Cc1ccc(OC)cc1)NS(=O)(=O)C(CC(=O)O)CC(C)C (stereo not given in full) | 19.2 | 19.1 | > 50 | 3 | –
CCCCCCC(CC(=O)O)S(=O)(=O)N[C@@H](Cc1ccc(OC)cc1)C(=O)NC (stereo not given in full) | 0.29 | – | 11.2 | 1.3 | 10
CNC(=O)[C@H](Cc1ccc(OC)cc1)NS(=O)(=O)C(CCc1ccccc1)CC(=O)NO (stereo not given in full) | 1.5 | 2.2 | 0.64 | 0.55 | –
CNC(=O)[C@H](Cc1ccc(OC)cc1)NS(=O)(=O)C(CCc1ccccc1)CC(=O)O (stereo not given in full) | 9.9 | – | 22.4 | 5.3 | 10
